Experimental data reported in patent US6903052B2, “Nematicidal compositions and methods” (Divergence, Inc., priority 2002, dated 2005).

How the values were obtained:
[1] = test system: root knot nematodes (Meloidogyne spp.); test: Nematicidal activity against root knot nematodes, summary statement; type: cell-based; conditions: concentration of 0.1%
Method: Meloidogyne incognita and javanica were prepared from tomato roots. The roots were bleached and the debris was separated from the J2 larvae and eggs by filtration followed by sucrose density gradient centrifugation. Eggs were hatched over 4 days at 15° C. and the J2 larvae were collected by passage though a filter, followed by centrifugation.
Nematodes and emulsions were incubated with shaking at room temperature for 48 hours. The contents of each well were transferred to a small spot on individual NGM plates lacking bacteria. About 24 hours after the transfer to plates, worms on and off the inoculation spot were counted as not viable or viable, respectively. Worms were considered viable if they had crawled away from the inoculation spot, or if they were moving. Worms were considered non-viable if they remained at the inoculation spot.

C. elegans = test: Nematicidal activity of emulsions made with Tween-20 (replacing Igepal CO 630) against C. elegans; type: cell-based, Caenorhabditis elegans; conditions: Tween-20 emulsion
Method: Some nematodes assayed as described in Example 9 lacked tolerance to emulsions made with the surfactant Igepal CO 630. For this reason some assays were repeated with Tween-20-based emulsions.
Briefly, 1 ml 1% stock solution emulsions were prepared by mixing 10 μl of fatty acid methyl ester with 20 μl of the surfactant Tween-20 in a 1.5 ml eppendorf tube. After careful mixing of fatty acid and Tween-20, 850 μl of ddH20 was added and mixed by gentle pipetting until a homogeneous solution was obtained. Finally, 120 μl of pure isopropanol was added and mixed by gentle pipetting. This stock solution was then used to produce various fatty acid methyl ester dilution emulsions in 24-well plate assays.

Compound: CCCCCCC(O)C/C=C\CCCCCCCC(=O)OC (stereo not drawn) [Ricinoleic Acid (C18-methyl ester), 12-hydroxy-cis-9-octadecenoic acid methyl ester]
- Nematicidal activity (in words) [1]: significant nematicidal activity
- % Worm Death (24 hr) (C. elegans; 0.001% solution): 40%
- % Worm Death (24 hr) (C. elegans; 0.01% solution): 100%
- % Worm Death (24 hr) (C. elegans; 0.1% solution): 100%
